This is an account of results in patent US20230248833A1, “COMPOUND HAVING BTK KINASE DEGRADING ACTIVITY, AND PREPARATION METHOD AND PHARMACEUTICAL USE THEREFOR” (SICHUAN HAISCO PHARMACEUTICAL CO., LTD., priority 2020, published 2023).

Like-named read-outs stand apart in the source and are kept apart here.

In one series the test system is Mino cells. The experiment in a line: Inhibition of cell proliferation, Mino cells (Cell Viability Assay, 72 h). It is filed as cell-based, human. The procedure: (§1) SU-DHL-4, Mino, and SU-DHL-6 cells, in the culture medium of RPMI1640+10% FBS, were cultured in an incubator at 37° C. under 5% CO2. Cells were plated in a 96-well plate. Specifically, SU-DHL-4 cells were at 20000/well, Mino and SU-DHL-6 cells were at 5000/well, with 90 μL/well. 10 μL of the compounds at different concentrations were added to each well. There were 3 replicate wells for each concentration, and the last column, added with DMSO, was used as a vehicle control group. The cultures were continued for 72 hours at 37° C. under 5% CO2. After 72 hours, 100 μL of detection reagent (Cell Viability Assay, Promega, G7573) was added to each well, and the cultures were uniformly mixed for 2 minutes, and incubated at room temperature for 10 minutes. The […] signal value was measured with a microplate reader (PHERAstar FSX). The IC50 value of the compound on cell proliferation inhibition was calculated using origin9.2 software, and the inhibition rate at the highest concentration of the compound (Max inhi.%) was calculated according to formula (1).
(§2) Max inhi.%=(1−T72administration/T72vehicle)×100 Formula (1).

A short description of series [1]: Pharmacokinetic experiment in rats. The class given is in vivo. To be noted: male, SD, rat, po, plasma, i.g. (20 mg/kg); for AUC(0-t): single dose. The procedure:
Experimental objective: In this experiment, a single dose of each test compound was administered to SD rats intravenously and intragastrically, the concentrations of the test compound in plasma of rats were measured, and the pharmacokinetic characteristics and bioavailability of the test compound in rats were evaluated.
Experimental animals: Male SD rats, about 200 g, 6-8 weeks old, 6 rats/compound. Rats were purchased from Hunan SJA Laboratory Animal Co., Ltd, with the laboratory animal production license number of SCXK (Xiang) 2019-004.
Experimental method: On the day of the experiment, 6 SD rats were randomly grouped according to their body weight. The animals were fasted with water available for 12 to 14 hours one day before the administration of a test compound, and were fed 4 hours after the administration.
Before and after the administration, […] of blood was taken from the orbit of the rats under isoflurane anesthesia, and placed in an EDTAK2 centrifuge tube. Centrifugation was carried out at 5000 rpm at 4° C. for 10 min, and the plasma was collected.
Time points for sample collection in G1&G2 groups comprise
Before analysis and detection, all samples were stored at −80° C. The samples were detected by HPLC-MS/MS.

The test system of another series is SU-DHL-6 cells. The series is described as follows: Inhibition of cell proliferation, SU-DHL-6 cells (Cell Viability Assay, 72 h). The class given is cell-based, human. The procedure:
as §1, §2

Usually IC50 stands for the concentration that gives 50% inhibition. High values mean weaker potency, low ones greater potency. One may read the AUC(0-t) as the area under the concentration-time curve up to a stated or last time point. Consider `Nc1ncnc2c1c(-c1ccc(Oc3ccccc3)cc1)nn2[C@H]1CCN(C2CN(CC3CN(c4ccc5c(c4)C(=O)N(C4CCC(=O)NC4=O)C5=O)C3)C2)C[C@H]1F` (stereo partly drawn) [Compound 104, 5-(3-((3-((3R,4S)-4-(4-amino-3-(4-phenoxyphenyl)-1H-pyrazolo[3,4-d]pyrimidin-1-yl)-3-fluoropiperidin-1-yl)azetidin-1-yl)methyl)azetidin-1-yl)-2-(2,6-dioxopiperidin-3-yl)isoindoline-1,3-dione], for which the IC50 is 16 nM with Mino cells (Homo sapiens, MINO, 72 h) and 23 nM in the series on SU-DHL-6 cells (Homo sapiens, SU-DHL-6, 72 h). The same compound showed an AUC(0-t) in series [1] of 1320 ± 653 ng·h/mL.
Take `Nc1ncnc2c1c(-c1ccc(Oc3ccccc3)cc1)nn2C1CCN(C2CN(CC3CN(c4cccc5c4C(=O)N(C4CCC(=O)NC4=O)C5=O)C3)C2)CC1` (stereo not shown) [Compound 105, 4-(3-((3-(4-(4-amino-3-(4-phenoxyphenyl)-1H-pyrazolo[3,4-d]pyrimidin-1-yl)piperidin-1-yl)azetidin-1-yl)methyl)azetidin-1-yl)-2-(2,6-dioxopiperidin-3-yl)isoindoline-1,3-dione]: the IC50 in the series with Mino cells (Homo sapiens, MINO, 72 h) was 208 nM; in the series on SU-DHL-6 cells (Homo sapiens, SU-DHL-6, 72 h), 331 nM.
The term bioavailability denotes dose-corrected exposure relative to a reference, in per cent. For `Nc1ncnc2c1c(-c1ccc(Oc3ccccc3)cc1)nn2C1CCN(C2CN(CC3CN(c4cc5c(cc4F)C(=O)N(C4CCC(=O)NC4=O)C5=O)C3)C2)CC1` (stereo not shown) [Compound 106, 5-(3-((3-(4-(4-amino-3-(4-phenoxyphenyl)-1H-pyrazolo[3,4-d]pyrimidin-1-yl)piperidin-1-yl)azetidin-1-yl)methyl)azetidin-1-yl)-2-(2,6-dioxopiperidin-3-yl)-6-fluoroisoindoline-1,3-dione], the IC50 with Mino cells (Homo sapiens, MINO, 72 h) is 119 nM; in the series with SU-DHL-6 cells (Homo sapiens, SU-DHL-6, 72 h), 95 nM. In series [1] (bioavailability), this compound displayed a bioavailability of 14.4 ± 3.3%. The compound further yielded an AUC(0-t) in series [1] of 3210 ± 728 ng·h/mL.
As for `Nc1ncnc2c1c(-c1ccc(Oc3ccccc3)cc1)nn2[C@@H]1CCN(C2CN(CC3CN(c4ccc5c(c4)C(=O)N(C4CCC(=O)NC4=O)C5=O)C3)C2)C[C@@H]1F` (stereo partly drawn) [Compound 110, 5-(3-((3-((3S,4R)-4-(4-amino-3-(4-phenoxyphenyl)-1H-pyrazolo[3,4-d]pyrimidin-1-yl)-3-fluoropiperidin-1-yl)azetidin-1-yl)methyl)azetidin-1-yl)-2-(2,6-dioxopiperidin-3-yl)isoindoline-1,3-dione], the IC50 in the series with Mino cells (Homo sapiens, MINO, 72 h) turned out to be 35 nM; in the series with SU-DHL-6 cells (Homo sapiens, SU-DHL-6, 72 h), 31 nM. For the same compound, the AUC(0-t) in series [1] was 614 ± 125 ng·h/mL.
The like results for `Nc1ncnc2c1c(-c1ccc(Oc3ccccc3)cc1)nn2[C@@H]1CCN(C2CN(CC3CN(c4ccc5c(c4)C(=O)N(C4CCC(=O)NC4=O)C5=O)C3)C2)C[C@H]1F` (stereo partly drawn) [Compound 111, 5-(3-((3-((3R,4R)-4-(4-amino-3-(4-phenoxyphenyl)-1H-pyrazolo[3,4-d]pyrimidin-1-yl)-3-fluoropiperidin-1-yl)azetidin-1-yl)methyl)azetidin-1-yl)-2-(2,6-dioxopiperidin-3-yl)isoindoline-1,3-dione] were, in that order, 50 nM, 23 nM and 753 ± 261 ng·h/mL.
For the compound `Nc1ncnc2c1c(-c1ccc(Oc3ccccc3)cc1)nn2[C@H]1CCN(C2CN(CC3CN(c4ccc5c(c4)C(=O)N(C4CCC(=O)NC4=O)C5=O)C3)C2)C[C@@H]1F` (stereo partly drawn) [Compound 112, 5-(3-((3-((3S,4S)-4-(4-amino-3-(4-phenoxyphenyl)-1H-pyrazolo[3,4-d]pyrimidin-1-yl)-3-fluoropiperidin-1-yl)azetidin-1-yl)methyl)azetidin-1-yl)-2-(2,6-dioxopiperidin-3-yl)isoindoline-1,3-dione], the IC50 in the series on Mino cells (Homo sapiens, MINO, 72 h) was 39 nM; in the series with SU-DHL-6 cells (Homo sapiens, SU-DHL-6, 72 h), 36 nM. In series [1], this compound displayed an AUC(0-t) of 1780 ± 663 ng·h/mL.
The like results for `Nc1ncnc2c1c(-c1ccc(Oc3ccccc3)cc1)nn2[C@H]1CCN(C2CN(CC3CN(c4cc5c(cc4F)C(=O)N(C4CCC(=O)NC4=O)C5=O)C3)C2)C[C@H]1F` (stereo partly drawn) [Compound 114, 5-(3-((3-((3R,4S)-4-(4-amino-3-(4-phenoxyphenyl)-1H-pyrazolo[3,4-d]pyrimidin-1-yl)-3-fluoropiperidin-1-yl)azetidin-1-yl)methyl)azetidin-1-yl)-2-(2,6-dioxopiperidin-3-yl)-6-fluoroisoindoline-1,3-dione] were, in that order, 66 nM, 24 nM and 2670 ± 738 ng·h/mL.
The like results for `Nc1ncnc2c1c(-c1ccc(Oc3ccccc3)cc1)nn2C1CCN(C2CN(CC3(F)CN(c4ccc5c(c4)C(=O)N(C4CCC(=O)NC4=O)C5=O)C3)C2)CC1` (stereo not shown) [Compound 116, 5-(3-((3-(4-(4-amino-3-(4-phenoxyphenyl)-1H-pyrazolo[3,4-d]pyrimidin-1-yl)piperidin-1-yl)azetidin-1-yl)methyl)-3-fluoroazetidin-1-yl)-2-(2,6-dioxopiperidin-3-yl)isoindoline-1,3-dione] were, in that order, 29 nM, 52 nM and 4440 ± 544 ng·h/mL.
Consider `Nc1ncnc2c1c(-c1ccc(Oc3ccccc3)cc1)nn2C1CCN(C2CN(CC3(F)CCN(c4cc5c(cc4F)C(=O)N(C4CCC(=O)NC4=O)C5=O)CC3)C2)CC1` (stereo not shown) [Compound 117, 5-(4-((3-(4-(4-amino-3-(4-phenoxyphenyl)-1H-pyrazolo[3,4-d]pyrimidin-1-yl)piperidin-1-yl)azetidin-1-yl)methyl)-4-fluoropiperidin-1-yl)-2-(2,6-dioxopiperidin-3-yl)-6-fluoroisoindoline-1,3-dione], for which the IC50 in the series on Mino cells (Homo sapiens, MINO, 72 h) was 119 nM; in the series on SU-DHL-6 cells (Homo sapiens, SU-DHL-6, 72 h) it was 98 nM. The compound further had an exposure AUC(0-t) in series [1] of 2280 ± 64 ng·h/mL.
For `Nc1ncnc2c1c(-c1ccc(Oc3ccccc3)cc1)nn2C1CCN(C2C[C@@H]3CN(CC4CN(c5ccc6c(c5)C(=O)N(C5CCC(=O)NC5=O)C6=O)C4)C[C@@H]3C2)CC1` (stereo partly drawn) [Trifluoroacetate of compound 100, 5-(3-(((3aR,6aS)-5-(4-(4-amino-3-(4-phenoxyphenyl)-1H-pyrazolo[3,4-d]pyrimidin-1-yl)piperidin-1-yl)hexahydrocyclopenta[c]pyrrol-2(1H)-yl)methyl)azetidin-1-yl)-2-(2,6-dioxopiperidin-3-yl)isoindoline-1,3-dione], the IC50 came to 123 nM with Mino cells (Homo sapiens, MINO, 72 h) and 99 nM with SU-DHL-6 cells (Homo sapiens, SU-DHL-6, 72 h).
Consider `Nc1ncnc2c1c(-c1ccc(Oc3ccccc3)cc1)nn2C1CCN(C2CC3(CCN(CC4CN(c5ccc6c(c5)C(=O)N(C5CCC(=O)NC5=O)C6=O)C4)CC3)C2)CC1` (stereo not shown) [Trifluoroacetate of compound 101, 5-(3-((2-(4-(4-amino-3-(4-phenoxyphenyl)-1H-pyrazolo[3,4-d]pyrimidin-1-yl)piperidin-1-yl)-7-azaspiro[3.5]nonan-7-yl)methyl)azetidin-1-yl)-2-(2,6-dioxopiperidin-3-yl)isoindoline-1,3-dione], for which the IC50 in the series on Mino cells (Homo sapiens, MINO, 72 h) was 77 nM; in the series with SU-DHL-6 cells (Homo sapiens, SU-DHL-6, 72 h), 77 nM.
`Nc1ncnc2c1c(-c1ccc(Oc3ccccc3)cc1)nn2C1CCN(C2CN(C3CN(CC4CN(c5ccc6c(c5)C(=O)N(C5CCC(=O)NC5=O)C6=O)C4)C3)C2)CC1` (stereo not shown) [Trifluoroacetate of compound 102, 5-(3-((3-(4-(4-amino-3-(4-phenoxyphenyl)-1H-pyrazolo[3,4-d]pyrimidin-1-yl)piperidin-1-yl)-[1,3′-biazetidin]-1′-yl)methyl)azetidin-1-yl)-2-(2,6-dioxopiperidin-3-yl)isoindoline-1,3-dione]: the IC50 came to 42 nM in the series with Mino cells (Homo sapiens, MINO, 72 h) and 23 nM in the series with SU-DHL-6 cells (Homo sapiens, SU-DHL-6, 72 h).
As to `Nc1ncnc2c1c(-c1ccc(Oc3ccccc3)cc1)nn2C1CCN(C2CN(CC3CN(c4ccc5c(c4)CN(C4CCC(=O)NC4=O)C5=O)C3)C2)CC1` (stereo not shown) [Trifluoroacetate of compound 107, 3-(5-(3-((3-(4-(4-amino-3-(4-phenoxyphenyl)-1H-pyrazolo[3,4-d]pyrimidin-1-yl)piperidin-1-yl)azetidin-1-yl)methyl)azetidin-1-yl)-1-oxoisoindolin-2-yl)piperidine-2,6-dione], the IC50 in the series on Mino cells worked out at 34 nM; with SU-DHL-6 cells it was 22 nM.
As for `Nc1ncnc2c1c(-c1ccc(Oc3ccccc3)cc1)nn2C1CCN(C2CN(CC3CN(Cc4ccc5c(c4)C(=O)N(C4CCC(=O)NC4=O)C5=O)C3)C2)CC1` (stereo not shown) [Trifluoroacetate of compound 109, 5-((3-((3-(4-(4-amino-3-(4-phenoxyphenyl)-1H-pyrazolo[3,4-d]pyrimidin-1-yl)piperidin-1-yl)azetidin-1-yl)methyl)azetidin-1-yl)methyl)-2-(2,6-dioxopiperidin-3-yl)isoindoline-1,3-dione], the half-inhibitory concentration (IC50) came to 356 nM in the series on Mino cells and 145 nM with SU-DHL-6 cells.
